Data taken from US11161815B2, “Hydrocarbylsulfonyl-substituted pyridines and their use in the treatment of cancer” (Oblique Therapeutics AB, priority 2017, dated 2021).

tested on: MDA-MB-231; assay: Cancer cell viability assay (MTT), MDA-MB-231; type: cell-based; conditions: Homo sapiens, 72 hrs, 10% FBS media
Procedure: (§1) Breast cancer and glioblastoma cell lines were plated 4000 cells/well in 96-well plates in the presence of 10% FBS media. The following day cells were treated with various concentrations of the example compounds (0.1% DMSO final) and incubated for 72 hrs. After the incubation An MTT assay was performed to access cell viability. Percent of viability was determined using DMSO vehicle and no cell (blank) controls.

Row | IC50 | Compound
1 | 4.9 µM | COC(=O)CCS(=O)(=O)c1nc(OC)ccc1[N+](=O)[O-] [Example 16, methyl 3-((6-methoxy-3-nitropyridin-2-yl)sulfonyl)propanoate]
2 | 18.4 µM | COc1ccc([N+](=O)[O-])c(S(=O)(=O)CCNC(C)=O)n1 [Example 15, N-(2-((6-methoxy-3-nitropyridin-2-yl)sulfonyl)ethyl)acetamide]
3 | > 33 µM | COc1ccc([N+](=O)[O-])c(S(=O)(=O)CCCO)n1 [Example 17, 3-((6-methoxy-3-nitropyridin-2-yl)sulfonyl)propan-1-ol]
4 | 7.73 µM | COc1ccc([N+](=O)[O-])c(S(=O)(=O)CCCCC(F)(F)F)n1 [Example 14, 6-methoxy-3-nitro-2-((5,5,5-trifluoropentyl)sulfonyl)pyridine]

The next lines start with the compound.

Row | Compound | IC50
5 | CC[S+]([O-])c1nc(OC)ccc1[N+](=O)[O-] (centres unmarked) [Example 31, 2-Ethanesulfinyl-6-methoxy-3-nitro-pyridine] | 3.51 µM
6 | COc1ccc([N+](=O)[O-])c(S(=O)(=O)C2CC2)n1 [Example 13, 2-(cyclopropylsulfonyl)-6-methoxy-3-nitropyridine] | 5.91 µM
7 | CCCCCCCC[S+]([O-])c1nc(OC)ccc1[N+](=O)[O-] (centres unmarked) [Example 33, 6-Methoxy-3-nitro-2-octylsulfinyl-pyridine] | 3.84 µM
8 | COc1ccc([N+](=O)[O-])c(S(=O)(=O)C(C)C)n1 [Example 11, 2-(isopropylsulfonyl)-6-methoxy-3-nitropyridine] | 7.1 µM

target: gluthathione reductase (GR) (Homo sapiens (Human), UniProt P00390); assay: Inhibition of recombinant GR (GSSG assay); type: biochemical; conditions: 2 nM GR, 250 μM NADPH, 15 minutes incubation
Sequence (P00390 44-522): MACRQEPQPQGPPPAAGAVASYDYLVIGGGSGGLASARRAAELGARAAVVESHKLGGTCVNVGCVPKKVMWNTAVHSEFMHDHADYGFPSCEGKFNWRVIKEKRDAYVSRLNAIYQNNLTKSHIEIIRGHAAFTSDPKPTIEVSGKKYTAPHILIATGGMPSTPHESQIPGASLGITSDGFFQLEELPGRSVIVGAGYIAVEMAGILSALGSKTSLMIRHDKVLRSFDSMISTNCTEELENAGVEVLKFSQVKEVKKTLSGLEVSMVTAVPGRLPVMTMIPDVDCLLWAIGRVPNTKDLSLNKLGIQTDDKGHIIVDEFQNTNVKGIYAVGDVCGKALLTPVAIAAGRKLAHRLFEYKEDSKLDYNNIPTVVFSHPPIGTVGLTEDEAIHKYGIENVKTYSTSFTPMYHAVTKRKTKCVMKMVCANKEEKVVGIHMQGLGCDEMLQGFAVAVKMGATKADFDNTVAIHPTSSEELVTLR
Procedure: (§2) Small molecule inhibition of recombinant thioredoxin reductase 1 (TrxR1) and gluthathione reductase (GR) was examined in 96-well plate format. 30 nM TrxR1 was incubated in the presence of 250 μM NADPH, 0.1 mg/ml BSA, and various concentrations of compound (1% DMSO final) in 50 mM Tris (pH 7.5) and 2 mM EDTA buffer for 15 minutes. Following the incubation period, 2 mM DTNB was added to each well and the change in O.D. at 412 nm was followed. Percent activity was determined using DMSO vehicle and no TrxR1 (blank) controls. 2 nM GR was incubated in the presence of 250 μM NADPH, 0.1 mg/ml BSA, and various concentrations of compounds (1% DMSO final) in 50 mM Tris (pH 7.5) and 2 mM EDTA buffer for 15 minutes. Following the incubation period, 1 mM GSSG was added to each well and the change in O.D. at 340 nm was followed. Percent activity was determined using DMSO vehicle and no GR (blank) controls.

Row | IC50 | Compound
9 | > 100 µM | COC(=O)CCS(=O)(=O)c1nc(OC)ccc1[N+](=O)[O-] [Example 16, methyl 3-((6-methoxy-3-nitropyridin-2-yl)sulfonyl)propanoate]
10 | > 100 µM | COc1ccc([N+](=O)[O-])c(S(=O)(=O)CCNC(C)=O)n1 [Example 15, N-(2-((6-methoxy-3-nitropyridin-2-yl)sulfonyl)ethyl)acetamide]
11 | > 100 µM | COc1ccc([N+](=O)[O-])c(S(=O)(=O)CCCO)n1 [Example 17, 3-((6-methoxy-3-nitropyridin-2-yl)sulfonyl)propan-1-ol]
12 | > 100 µM | COc1ccc([N+](=O)[O-])c(S(=O)(=O)CCCCC(F)(F)F)n1 [Example 14, 6-methoxy-3-nitro-2-((5,5,5-trifluoropentyl)sulfonyl)pyridine]

The next lines start with the compound.

Row | Compound | IC50
13 | CC[S+]([O-])c1nc(OC)ccc1[N+](=O)[O-] (centres unmarked) [Example 31, 2-Ethanesulfinyl-6-methoxy-3-nitro-pyridine] | > 100 µM
14 | COc1ccc([N+](=O)[O-])c(S(=O)(=O)C2CC2)n1 [Example 13, 2-(cyclopropylsulfonyl)-6-methoxy-3-nitropyridine] | > 100 µM
15 | CCCCCCCC[S+]([O-])c1nc(OC)ccc1[N+](=O)[O-] (centres unmarked) [Example 33, 6-Methoxy-3-nitro-2-octylsulfinyl-pyridine] | 85.4 µM
16 | COc1ccc([N+](=O)[O-])c(S(=O)(=O)C(C)C)n1 [Example 11, 2-(isopropylsulfonyl)-6-methoxy-3-nitropyridine] | > 100 µM

tested on: U-87 MG; assay: Cancer cell viability assay (MTT), U-87 MG; type: cell-based; conditions: Homo sapiens, 72 hrs, 10% FBS media
Procedure: as §1

Row | IC50 | Compound
17 | 5.23 µM | COC(=O)CCS(=O)(=O)c1nc(OC)ccc1[N+](=O)[O-] [Example 16, methyl 3-((6-methoxy-3-nitropyridin-2-yl)sulfonyl)propanoate]
18 | 16.3 µM | COc1ccc([N+](=O)[O-])c(S(=O)(=O)CCNC(C)=O)n1 [Example 15, N-(2-((6-methoxy-3-nitropyridin-2-yl)sulfonyl)ethyl)acetamide]
19 | 19.5 µM | COc1ccc([N+](=O)[O-])c(S(=O)(=O)CCCO)n1 [Example 17, 3-((6-methoxy-3-nitropyridin-2-yl)sulfonyl)propan-1-ol]
20 | 7.52 µM | COc1ccc([N+](=O)[O-])c(S(=O)(=O)CCCCC(F)(F)F)n1 [Example 14, 6-methoxy-3-nitro-2-((5,5,5-trifluoropentyl)sulfonyl)pyridine]

The remaining lines, values behind:

Row | Compound | IC50
21 | CC[S+]([O-])c1nc(OC)ccc1[N+](=O)[O-] (centres unmarked) [Example 31, 2-Ethanesulfinyl-6-methoxy-3-nitro-pyridine] | 6.22 µM
22 | COc1ccc([N+](=O)[O-])c(S(=O)(=O)C2CC2)n1 [Example 13, 2-(cyclopropylsulfonyl)-6-methoxy-3-nitropyridine] | 6.92 µM
23 | CCCCCCCC[S+]([O-])c1nc(OC)ccc1[N+](=O)[O-] (centres unmarked) [Example 33, 6-Methoxy-3-nitro-2-octylsulfinyl-pyridine] | 9.25 µM
24 | COc1ccc([N+](=O)[O-])c(S(=O)(=O)C(C)C)n1 [Example 11, 2-(isopropylsulfonyl)-6-methoxy-3-nitropyridine] | 6 µM

target: recombinant thioredoxin reductase 1 (TrxR1) (Homo sapiens (Human), UniProt Q16881); assay: Inhibition of recombinant TrxR1 (DTNB assay); type: biochemical; conditions: 30 nM TrxR1, 250 μM NADPH, 15 minutes incubation, read-out: TrxR Assay IC50
Sequence (Q16881 151-649): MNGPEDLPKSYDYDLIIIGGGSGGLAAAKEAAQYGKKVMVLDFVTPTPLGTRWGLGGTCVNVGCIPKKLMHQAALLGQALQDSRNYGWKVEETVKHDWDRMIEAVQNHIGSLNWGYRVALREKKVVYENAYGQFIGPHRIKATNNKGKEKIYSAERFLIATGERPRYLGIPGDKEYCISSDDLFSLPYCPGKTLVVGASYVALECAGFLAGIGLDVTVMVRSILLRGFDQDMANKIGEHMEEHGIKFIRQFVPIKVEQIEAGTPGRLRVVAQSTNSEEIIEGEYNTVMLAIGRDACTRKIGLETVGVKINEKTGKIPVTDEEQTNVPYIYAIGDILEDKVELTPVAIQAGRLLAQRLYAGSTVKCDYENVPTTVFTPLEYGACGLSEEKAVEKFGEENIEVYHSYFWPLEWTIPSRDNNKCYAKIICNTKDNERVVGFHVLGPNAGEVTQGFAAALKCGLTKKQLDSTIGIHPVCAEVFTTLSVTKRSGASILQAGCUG
Procedure: as §2

Row | IC50 | Compound
25 | 0.0606 µM | COC(=O)CCS(=O)(=O)c1nc(OC)ccc1[N+](=O)[O-] [Example 16, methyl 3-((6-methoxy-3-nitropyridin-2-yl)sulfonyl)propanoate]
26 | 0.122 µM | COc1ccc([N+](=O)[O-])c(S(=O)(=O)CCNC(C)=O)n1 [Example 15, N-(2-((6-methoxy-3-nitropyridin-2-yl)sulfonyl)ethyl)acetamide]
27 | 0.103 µM | COc1ccc([N+](=O)[O-])c(S(=O)(=O)CCCO)n1 [Example 17, 3-((6-methoxy-3-nitropyridin-2-yl)sulfonyl)propan-1-ol]
28 | 0.0969 µM | COc1ccc([N+](=O)[O-])c(S(=O)(=O)CCCCC(F)(F)F)n1 [Example 14, 6-methoxy-3-nitro-2-((5,5,5-trifluoropentyl)sulfonyl)pyridine]

Continued, compound first:

Row | Compound | IC50
29 | CC[S+]([O-])c1nc(OC)ccc1[N+](=O)[O-] (centres unmarked) [Example 31, 2-Ethanesulfinyl-6-methoxy-3-nitro-pyridine] | 0.131 µM
30 | COc1ccc([N+](=O)[O-])c(S(=O)(=O)C2CC2)n1 [Example 13, 2-(cyclopropylsulfonyl)-6-methoxy-3-nitropyridine] | 0.16 µM
31 | CCCCCCCC[S+]([O-])c1nc(OC)ccc1[N+](=O)[O-] (centres unmarked) [Example 33, 6-Methoxy-3-nitro-2-octylsulfinyl-pyridine] | 0.5 µM
32 | COc1ccc([N+](=O)[O-])c(S(=O)(=O)C(C)C)n1 [Example 11, 2-(isopropylsulfonyl)-6-methoxy-3-nitropyridine] | 0.204 µM

tested on: MDA-MB-468; assay: Cancer cell viability assay (MTT), MDA-MB-468; type: cell-based; conditions: Homo sapiens, 72 hrs, 10% FBS media
Procedure: as §1

Row | IC50 | Compound
33 | 3.9 µM | COC(=O)CCS(=O)(=O)c1nc(OC)ccc1[N+](=O)[O-] [Example 16, methyl 3-((6-methoxy-3-nitropyridin-2-yl)sulfonyl)propanoate]
34 | 5.47 µM | COc1ccc([N+](=O)[O-])c(S(=O)(=O)CCNC(C)=O)n1 [Example 15, N-(2-((6-methoxy-3-nitropyridin-2-yl)sulfonyl)ethyl)acetamide]
35 | 9.77 µM | COc1ccc([N+](=O)[O-])c(S(=O)(=O)CCCO)n1 [Example 17, 3-((6-methoxy-3-nitropyridin-2-yl)sulfonyl)propan-1-ol]
36 | 3.88 µM | COc1ccc([N+](=O)[O-])c(S(=O)(=O)CCCCC(F)(F)F)n1 [Example 14, 6-methoxy-3-nitro-2-((5,5,5-trifluoropentyl)sulfonyl)pyridine]

Continued, compound first:

Row | Compound | IC50
37 | CC[S+]([O-])c1nc(OC)ccc1[N+](=O)[O-] (centres unmarked) [Example 31, 2-Ethanesulfinyl-6-methoxy-3-nitro-pyridine] | 3.23 µM
38 | COc1ccc([N+](=O)[O-])c(S(=O)(=O)C2CC2)n1 [Example 13, 2-(cyclopropylsulfonyl)-6-methoxy-3-nitropyridine] | 4.68 µM
39 | CCCCCCCC[S+]([O-])c1nc(OC)ccc1[N+](=O)[O-] (centres unmarked) [Example 33, 6-Methoxy-3-nitro-2-octylsulfinyl-pyridine] | 1.85 µM
40 | COc1ccc([N+](=O)[O-])c(S(=O)(=O)C(C)C)n1 [Example 11, 2-(isopropylsulfonyl)-6-methoxy-3-nitropyridine] | 4.9 µM

tested on: MDA-MB-231 cells; assay: Breast cancer cell viability assay (Alamar Blue); type: cell-based; conditions: Homo sapiens, 72 hrs, 10% FBS media containing 25 nM selenite
Procedure: MDA-MB-231 cells were plated 2000 cells/well in 96-well black optical plates in the presence of 10% FBS media containing 25 nM selenite. The following day cells were treated with various concentrations of compounds (0.1% DMSO final) and incubated for 72 hrs. After the incubation Alamar Blue reagent was added to each well and incubated for additional 3 hrs. Fluorescence was read ex:530 nm/em:590 nm, and percent of viability was determined using DMSO vehicle and no cell (blank) controls.

Row | IC50 | Compound
41 | 8.09 µM | COC(=O)CCS(=O)(=O)c1nc(OC)ccc1[N+](=O)[O-] [Example 16, methyl 3-((6-methoxy-3-nitropyridin-2-yl)sulfonyl)propanoate]
42 | 11.4 µM | COc1ccc([N+](=O)[O-])c(S(=O)(=O)CCNC(C)=O)n1 [Example 15, N-(2-((6-methoxy-3-nitropyridin-2-yl)sulfonyl)ethyl)acetamide]
43 | 12.5 µM | COc1ccc([N+](=O)[O-])c(S(=O)(=O)CCCO)n1 [Example 17, 3-((6-methoxy-3-nitropyridin-2-yl)sulfonyl)propan-1-ol]
44 | 5.6 µM | COc1ccc([N+](=O)[O-])c(S(=O)(=O)CCCCC(F)(F)F)n1 [Example 14, 6-methoxy-3-nitro-2-((5,5,5-trifluoropentyl)sulfonyl)pyridine]
